According to publication PMC4594013 (Frontiers in Pharmacology, 2015):
Where “and” joins values, the source holds several entries; their conditions need not be identical. Identical values can stand only once. Counter-ions that a name gives are not always drawn. Like-named read-outs stand apart in the source and are kept apart here.

Legend:
[1] = molecular target: T1, OAT2-tv1 (Homo sapiens, UniProt Q9Y694); assay: Inhibition of [3H]penciclovir uptake into CHO-OAT2-tv1 cells; type: cell-based; settings: 5 min; for % Inhibition: inhibition of [3H]penciclovir uptake by CHO-OAT2-tv1 cells at the maximum concentration of test compound (Table 2, c1); for % Inhibition / IC50: room temperature; for cis-inhibition of penciclovir uptake: CHO-OAT2-tv1 cells, test compound 1 mM, [3H]penciclovir ∼30 nM
T1 sequence (Q9Y694 1-546 isoform Q9Y694-2): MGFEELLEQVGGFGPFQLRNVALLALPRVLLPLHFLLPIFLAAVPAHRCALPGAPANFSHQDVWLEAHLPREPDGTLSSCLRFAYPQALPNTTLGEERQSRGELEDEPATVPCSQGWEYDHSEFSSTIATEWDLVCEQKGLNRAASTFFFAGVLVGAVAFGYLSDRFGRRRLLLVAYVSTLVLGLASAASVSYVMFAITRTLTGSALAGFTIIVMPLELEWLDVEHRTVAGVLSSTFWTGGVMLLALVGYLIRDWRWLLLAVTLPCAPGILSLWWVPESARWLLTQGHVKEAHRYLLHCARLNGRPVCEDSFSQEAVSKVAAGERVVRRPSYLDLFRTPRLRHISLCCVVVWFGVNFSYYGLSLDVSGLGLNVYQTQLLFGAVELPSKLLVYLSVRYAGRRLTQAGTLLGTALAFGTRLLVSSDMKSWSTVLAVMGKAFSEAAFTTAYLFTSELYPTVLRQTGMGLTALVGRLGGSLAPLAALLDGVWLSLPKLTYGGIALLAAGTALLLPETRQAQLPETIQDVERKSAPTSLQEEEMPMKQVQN
Experimental: (§1) All experiments examining cellular radiolabeled compound uptake were conducted using cells grown to confluence in 24-well flat bottom plates. The transport solution consisted of WB (room temperature) containing radiolabeled compound and the uptake period for all experiments was at an initial rate time point of 5 min. [^3H]Penciclovir served as the probe OAT2 substrate. We also examined the uptake of [^3H]para-aminohippurate, [^3H]estrone-3-sulfate, [^14C]glutarate, [^14C]succinate, [^3H]paclitaxel, and [^3H]dehydroepiandrosterone sulfate by OAT2 since published studies indicate that they are substrates of the transport protein ([Sun et al., 2001]; [Kobayashi et al., 2005a]). […] For all cellular uptake experiments, the medium was aspirated and the cells were rinsed once with WB (0.3 ml). Following the uptake period, cells were washed three times with ice-cold WB (0.5 ml each wash). After aspirating the final wash the cells were lysed in 0.5 N NaOH/1% SDS (0.4 ml) for ∼30 min on an orbital shaker. 1 N HCl (0.2 ml) was then added to neutralize the NaOH, and the cell lysates (0.5 ml) were transferred to scintillation vials containing liquid scintillation cocktail (CytoScint ES, MP Biomedicals). Cellular radioactivity content was determined with a Beckman LS6500 liquid scintillation counter. Protein content was determined using the bicinchoninic acid method. See the Figure and Table Legends for additional details describing the experimental conditions used.
The concentration of each Kreb’s cycle intermediate was 1 mM. Uptake was conducted for 5 min.

[2] = test system: OAT2 with an unidentified sequence; settings: cited from earlier work
[3] = molecular target: T1, OAT2-tv1; assay: Cellular uptake of radiolabeled compounds by CHO, HEK or MDCK cells stably expressing OAT2-tv1; settings: for uptake compared to respective parental cells: CHO-, HEK- and MDCK-OAT2-tv1 cells, para-aminohippurate 8 nM, estrone-3-sulfate 10 nM, glutarate 18 μM
Experimental: as §1
FIGURE 2 Cellular accumulation of [^3H]penciclovir (A), [^3H]para-aminohippurate (B), [^3H]estrone-3-sulfate (C), or [^14C]glutarate (D) by parental CHO, HEK, or MDCK cells, or CHO, HEK, or MDCK cells stably expressing either OAT2-tv1 or OAT2-tv2. The concentration of [^3H]penciclovir in the transport solution was 0.1 μM for CHO and MDCK cell experiments, and 0.5 μM for HEK cell experiments. The concentrations of [^3H]para-aminohippurate, [^3H]estrone-3-sulfate and [^14C]glutarate were 8 nM, 10 nM, and 18 μM, respectively. Uptake was conducted for 5 min at room temperature.
FIGURE 4 Cellular accumulation of [^14C]succinate (18.5 μM) by CHO parental cells, CHO-OAT2-tv1 cells or CHO cells stably expressing the Na-dicarboxylate cotransporter 3 (NaDC3). Uptake was conducted for 5 min. Values are the mean ± standard error of the mean of four experiments for CHO parental and CHO-OAT2-tv1 cells. A single uptake experiment was performed with CHO-NaDC3 cells.

[4] = molecular target: T2, OAT2-tv2 (Homo sapiens, UniProt Q9Y694); assay: Cellular uptake of radiolabeled compounds by CHO, HEK or MDCK cells stably expressing OAT2-tv2; type: cell-based; set-up: The open reading frame of the human ortholog of OAT2 transcript variant 2 (OAT2-tv2) containing 548 amino acids was amplified from a construct obtained from Origene; host or cells: CHO, HEK and MDCK Flp-In cells; settings: HEK- and MDCK-OAT2-tv2 cells, penciclovir 0.1/0.5 μM, para-aminohippurate 8 nM, estrone-3-sulfate 10 nM, glutarate 18 μM, 5 min
T2 sequence (Q9Y694 1-548): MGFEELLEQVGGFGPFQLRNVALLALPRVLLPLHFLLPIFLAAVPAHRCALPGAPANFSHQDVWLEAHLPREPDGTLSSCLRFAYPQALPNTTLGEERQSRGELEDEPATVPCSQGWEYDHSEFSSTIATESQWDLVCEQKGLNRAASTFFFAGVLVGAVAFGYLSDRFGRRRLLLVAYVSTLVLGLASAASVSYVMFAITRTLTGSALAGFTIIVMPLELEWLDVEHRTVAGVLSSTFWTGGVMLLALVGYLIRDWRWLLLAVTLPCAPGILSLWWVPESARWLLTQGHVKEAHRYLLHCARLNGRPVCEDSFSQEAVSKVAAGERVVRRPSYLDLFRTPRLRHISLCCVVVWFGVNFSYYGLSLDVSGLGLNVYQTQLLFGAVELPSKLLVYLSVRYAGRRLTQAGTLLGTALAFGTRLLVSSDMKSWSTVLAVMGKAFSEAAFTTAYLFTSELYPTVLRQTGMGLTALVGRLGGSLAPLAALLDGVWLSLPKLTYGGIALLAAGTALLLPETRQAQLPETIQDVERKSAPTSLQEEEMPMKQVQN
Experimental: [^3H]Penciclovir served as the probe OAT2 substrate. […] Protein content was determined using the bicinchoninic acid method.
Uptake was conducted for 5 min at room temperature.

[5] = molecular target: T1, OAT2-tv1; settings: cited from earlier work; for substrate of OAT2-tv1: ref Cheng et al., 2012
[6] = test system: CHO parental cells; assay: Cellular accumulation of radiolabeled compounds in CHO parental cells; type: cell-based, Chinese hamster; settings: [3H]dehydroepiandrosterone sulfate 12 nM, [3H]paclitaxel 22 nM, n = 3
[7] = inhibition of [3H]penciclovir uptake by CHO-OAT2-tv1 cells, read-out: IC50

Row | SMILES | % Inhibition [1] [%] | IC50 [1, 7] | also measured
1 | CCCCC[C@H](O)/C=C/[C@H]1[C@H](O)CC(=O)[C@@H]1C/C=C\CCCC(=O)O [Prostaglandin E2] | 96 | 26.8 ± 2.4 µM | 
2 | CCOc1cc(CC(=O)N[C@@H](CC(C)C)c2ccccc2N2CCCCC2)ccc1C(=O)O [Repaglinide] | 99 | 30 ± 3.6 µM | 
3 | Nc1ccn(C[C@@H](CO)OCP(=O)(O)O)c(=O)n1 [Cidofovir] | 53 |  | 
4 | CN/C(=N/CCSCc1nc[nH]c1C)NC#N [Cimetidine] | 95 | 57 µM and 57.2 µM | inhibition of OAT2 ([2]; ref Khamdang et al., 2004): no inhibition
5 | Nc1ccc(C(=O)NCC(=O)O)cc1 [para-aminohippurate] | 99 | 210 µM | uptake compared to respective parental cells ([3]; 5 min): not different than uptake into the respective parental cells; uptake compared to respective parental cells [4]: not different than uptake into the respective parental cells; uptake by HEK-OAT2-tv1 cells ([5]; ref Cropp et al., 2008): failed to observe appreciable uptake
6 | Nc1nc(O)c2ncn(COC(CO)CO)c2n1 [ganciclovir] |  |  | substrate of OAT2-tv1 [5]: clearly substrates of OAT2-tv1
7 | O=C(O)C[C@@H](O)C(=O)O [D-malate] |  |  | cis-inhibition of penciclovir uptake [1]: none of the Kreb’s cycle intermediates tested, including succinate and fumarate, cis-inhibited penciclovir uptake
8 | CC[C@H]1OC(=O)[C@H](C)[C@@H](O[C@H]2C[C@@](C)(OC)[C@@H](O)[C@H](C)O2)[C@H](C)[C@@H](O[C@@H]2O[C@H](C)C[C@H](N(C)C)[C@H]2O)[C@](C)(O)C[C@@H](C)C(=O)[C@H](C)[C@@H](O)[C@]1(C)O [Erythromycin] | 65 | 12 ± 5.4 µM | 
9 | Nc1nc2c(ncn2CCC(CO)CO)c(=O)[nH]1 [Penciclovir] | 85 | 78.4 ± 8.2 µM | uptake of penciclovir, fold higher compared to parental cells ([3]; CHO-OAT2-tv1 cells, [3H]penciclovir 0.1 μM, 5 min): 21 fold; uptake of penciclovir, fold higher compared to parental cells ([3]; HEK-OAT2-tv1 cells, [3H]penciclovir 0.5 μM, 5 min): 39 fold; uptake of penciclovir, fold higher compared to parental cells ([3]; MDCK-OAT2-tv1 cells, [3H]penciclovir 0.1 μM, 5 min): 5 fold; uptake compared to respective parental cells [4]: not different from uptake into the respective parental cells; substrate of OAT2-tv1 [5]: clearly substrates of OAT2-tv1
10 | CCCc1nc2c(C)cc(-c3nc4ccccc4n3C)cc2n1Cc1ccc(-c2ccccc2C(=O)O)cc1 [Telmisartan] | 96 | 17.1 ± 1.3 µM | 
11 | NS(=O)(=O)c1cc(C(=O)O)c(NCc2ccco2)cc1Cl [Furosemide] | 90 |  | IC50 ([2]; ref Hasannejad et al., 2004): 603 µM
12 | CCCCC[N+](CCCCC)(CCCCC)CCCCC [Tetrapentylammonium] | 49 |  | IC50 ([1]; IC50, inhibition of [3H]penciclovir uptake by CHO-OAT2-tv1 cells): 279 ± 142 µM
13 | CC[N+](CC)(CC)CC [Tetraethylammonium] | 42 | 54.3 ± 33 µM | 
14 | CCCN(CCC)S(=O)(=O)c1ccc(C(=O)O)cc1 [Probenecid] | 64 |  | 
15 | CN(Cc1cnc2nc(N)nc(N)c2n1)c1ccc(C(=O)N[C@@H](CCC(=O)O)C(=O)O)cc1 [Methotrexate] | 76 |  | 
16 | CCCCC(=O)N(Cc1ccc(-c2ccccc2-c2nnn[nH]2)cc1)[C@H](C(=O)O)C(C)C [Valsartan] | 86 | 127 ± 29 µM | 
17 | COc1ccc2c(c1)c(CC(=O)O)c(C)n2C(=O)c1ccc(Cl)cc1 [Indomethacin] | 99 |  | IC50 ([2]; ref Khamdang et al., 2002): 64.1 µM
18 | O=C(O)CC(=O)C(=O)O [oxaloacetate] |  |  | cis-inhibition of penciclovir uptake [1]: none of the Kreb’s cycle intermediates tested, including succinate and fumarate, cis-inhibited penciclovir uptake
19 | O=C(O)CCCC(=O)O [glutarate] |  |  | uptake compared to respective parental cells ([3]; 5 min): not different than uptake into the respective parental cells; uptake compared to respective parental cells [4]: not different than uptake into the respective parental cells
20 | CC(=O)O[C@H]1C(=O)[C@@]2(C)[C@H]([C@H](OC(=O)c3ccccc3)[C@]3(O)C[C@H](OC(=O)[C@H](O)[C@@H](NC(=O)c4ccccc4)c4ccccc4)C(C)=C1C3(C)C)[C@]1(OC(C)=O)CO[C@@H]1C[C@@H]2O [paclitaxel] |  |  | cellular accumulation ([3]; 5 min, 22 nM): 90 ± 5.1 fmoles ⋅ mg protein^-1 ⋅ min^-1; mediated transport by OAT2-tv1 ([3]; expressed in CHO cells): unable to show mediated transport; cellular accumulation [6]: 89 ± 3.8 fmoles ⋅ mg protein^-1 ⋅ min^-1
21 | C[C@]12CC[C@@H]3c4ccc(OS(=O)(=O)O)cc4CC[C@H]3[C@@H]1CCC2=O [Estrone Sulfate] | 95 | 36.1 ± 3.9 µM | uptake compared to respective parental cells ([3]; 5 min): not different than uptake into the respective parental cells; uptake compared to respective parental cells [4]: not different than uptake into the respective parental cells
